Measurements: ChEMBL document CHEMBL3112491, “3-(5-)-Amino-o-diarylisoxazoles: regioselective synthesis and antitubulin activity” (2014)

Key:
Format in all cases: functional
[1] = system: MDA-MB-468; experiment: Growth inhibition of human MDA-MB-468 cells after 48 hrs by sulforhodamine B assay; conditions: MDA-MB-468, 48 h
[2] = system: T47D; experiment: Growth inhibition of human T47D cells after 48 hrs by sulforhodamine B assay
[3] = Growth inhibition of human Hs 578T cells after 48 hrs by sulforhodamine B assay
[4] = system: BT-549; experiment: Growth inhibition of human BT549 cells after 48 hrs by sulforhodamine B assay; conditions: BT-549, 48 h
[5] = system: MCF7; experiment: Growth inhibition of human MCF7 cells after 48 hrs by sulforhodamine B assay; conditions: MCF7, 48 h
[6] = system: MDA-MB-231; experiment: Growth inhibition of human MDA-MB-231 cells after 48 hrs by sulforhodamine B assay; conditions: MDA-MB-231, 48 h
[7] = system: DU-145; experiment: Growth inhibition of human DU145 cells after 48 hrs by sulforhodamine B assay; conditions: DU-145, 48 h
[8] = system: PC-3; experiment: Growth inhibition of human PC3 cells after 48 hrs by sulforhodamine B assay; conditions: PC-3, 48 h
[9] = Growth inhibition of human UO31 cells after 48 hrs by sulforhodamine B assay; conditions: UO-31, 48 h
[10] = system: SN12C; experiment: Growth inhibition of human SN12C cells after 48 hrs by sulforhodamine B assay
[11] = system: TK-10; experiment: Growth inhibition of human TK10 cells after 48 hrs by sulforhodamine B assay; conditions: TK-10, 48 h
[12] = system: CAKI-1; experiment: Growth inhibition of human CAKI-1 cells after 48 hrs by sulforhodamine B assay; conditions: CAKI-1, 48 h
[13] = Growth inhibition of human RXF393 cells after 48 hrs by sulforhodamine B assay; conditions: RXF 393, 48 h
[14] = system: A498; experiment: Growth inhibition of human A498 cells after 48 hrs by sulforhodamine B assay; conditions: A498, 48 h
[15] = system: ACHN; experiment: Growth inhibition of human ACHN cells after 48 hrs by sulforhodamine B assay
[16] = system: 786-0; experiment: Growth inhibition of human 786-0 cells after 48 hrs by sulforhodamine B assay; conditions: 786-0, 48 h
[17] = system: SK-OV-3; experiment: Growth inhibition of human SKOV3 cells after 48 hrs by sulforhodamine B assay; conditions: SK-OV-3, 48 h
[18] = system: OVCAR-8; experiment: Growth inhibition of human OVCAR8 cells after 48 hrs by sulforhodamine B assay; conditions: OVCAR-8, 48 h
[19] = Growth inhibition of human NCI-ADR-RES cells after 48 hrs by sulforhodamine B assay
[20] = Growth inhibition of human OVCAR4 cells after 48 hrs by sulforhodamine B assay; conditions: OVCAR-4, 48 h
[21] = Growth inhibition of human OVCAR5 cells after 48 hrs by sulforhodamine B assay; conditions: OVCAR-5, 48 h
[22] = system: IGROV-1; experiment: Growth inhibition of human IGROV1 cells after 48 hrs by sulforhodamine B assay; conditions: IGROV-1, 48 h
[23] = system: OVCAR-3; experiment: Growth inhibition of human OVCAR3 cells after 48 hrs by sulforhodamine B assay; conditions: OVCAR-3, 48 h
[24] = Growth inhibition of human UACC257 cells after 48 hrs by sulforhodamine B assay; conditions: UACC-257, 48 h
[25] = system: UACC-62; experiment: Growth inhibition of human UACC62 cells after 48 hrs by sulforhodamine B assay; conditions: UACC-62, 48 h
[26] = system: SK-MEL-28; experiment: Growth inhibition of human SK-MEL-28 cells after 48 hrs by sulforhodamine B assay; conditions: SK-MEL-28, 48 h
[27] = system: SK-MEL-5; experiment: Growth inhibition of human SK-MEL-5 cells after 48 hrs by sulforhodamine B assay; conditions: SK-MEL-5, 48 h
[28] = system: MDA-MB-435; experiment: Growth inhibition of human MDA-MB-435 cells after 48 hrs by sulforhodamine B assay; conditions: MDA-MB-435, 48 h
[29] = system: M14; experiment: Growth inhibition of human M14 cells after 48 hrs by sulforhodamine B assay; conditions: M14, 48 h
[30] = system: Malme-3M; experiment: Growth inhibition of human MALME-3M cells after 48 hrs by sulforhodamine B assay
[31] = system: SNB-75; experiment: Growth inhibition of human SNB75 cells after 48 hrs by sulforhodamine B assay; conditions: SNB-75, 48 h
[32] = Growth inhibition of human SF539 cells after 48 hrs by sulforhodamine B assay; conditions: SF-539, 48 h
[33] = system: SNB-19; experiment: Growth inhibition of human SNB19 cells after 48 hrs by sulforhodamine B assay; conditions: SNB-19, 48 h
[34] = system: SF-295; experiment: Growth inhibition of human SF295 cells after 48 hrs by sulforhodamine B assay; conditions: SF-295, 48 h
[35] = system: SF-268; experiment: Growth inhibition of human SF268 cells after 48 hrs by sulforhodamine B assay; conditions: SF-268, 48 h
[36] = system: SW-620; experiment: Growth inhibition of human SW620 cells after 48 hrs by sulforhodamine B assay; conditions: SW-620, 48 h
[37] = system: KM12; experiment: Growth inhibition of human KM12 cells after 48 hrs by sulforhodamine B assay; conditions: KM12, 48 h
[38] = system: HT-29; experiment: Growth inhibition of human HT-29 cells after 48 hrs by sulforhodamine B assay; conditions: HT-29, 48 h
[39] = system: HCT-15; experiment: Growth inhibition of human HCT15 cells after 48 hrs by sulforhodamine B assay; conditions: HCT-15, 48 h
[40] = system: HCT-116; experiment: Growth inhibition of human HCT116 cells after 48 hrs by sulforhodamine B assay; conditions: HCT-116, 48 h
[41] = Growth inhibition of human HCC2998 cells after 48 hrs by sulforhodamine B assay; conditions: HCC 2998, 48 h
[42] = system: COLO 205; experiment: Growth inhibition of human COLO205 cells after 48 hrs by sulforhodamine B assay; conditions: COLO 205, 48 h
[43] = system: NCI-H522; experiment: Growth inhibition of human NCI-H522 cells after 48 hrs by sulforhodamine B assay; conditions: NCI-H522, 48 h
[44] = system: NCI-H460; experiment: Growth inhibition of human NCI-H460 cells after 48 hrs by sulforhodamine B assay; conditions: NCI-H460, 48 h
[45] = system: NCI-H322M; experiment: Growth inhibition of human NCI-H322M cells after 48 hrs by sulforhodamine B assay
[46] = system: NCI-H23; experiment: Growth inhibition of human NCI-H23 cells after 48 hrs by sulforhodamine B assay; conditions: NCI-H23, 48 h
[47] = system: NCI-H226; experiment: Growth inhibition of human NCI-H226 cells after 48 hrs by sulforhodamine B assay; conditions: NCI-H226, 48 h
[48] = system: HOP-62; experiment: Growth inhibition of human HOP62 cells after 48 hrs by sulforhodamine B assay; conditions: HOP-62, 48 h
[49] = system: A549; experiment: Growth inhibition of human A549/ATCC cells after 48 hrs by sulforhodamine B assay; conditions: A549, 48 h
[50] = system: RPMI-8226; experiment: Growth inhibition of human RPMI8226 cells after 48 hrs by sulforhodamine B assay; conditions: RPMI-8226, 48 h
[51] = system: SR; experiment: Growth inhibition of human SR cells after 48 hrs by sulforhodamine B assay
[52] = system: MOLT-4; experiment: Growth inhibition of human MOLT4 cells after 48 hrs by sulforhodamine B assay; conditions: MOLT-4, 48 h
[53] = system: K562; experiment: Growth inhibition of human K562 cells after 48 hrs by sulforhodamine B assay; conditions: K562, 48 h
[54] = system: HL-60(TB); experiment: Growth inhibition of human HL-60(TB) cells after 48 hrs by sulforhodamine B assay; conditions: HL-60, 48 h
[55] = system: CCRF-CEM; experiment: Growth inhibition of human CCRF-CEM cells after 48 hrs by sulforhodamine B assay
[56] = system: Paracentrotus lividus; experiment: Microtubule destabilizing activity in sea urchin free-swimming blastula assessed as embryo spinning treated at 9 to 10 hrs post-fertilization measured after 0.15 to 15 hrs
[57] = system: Paracentrotus lividus; experiment: Antimitotic activity in sea urchin fertilized egg assessed as cleavage arrest treated at 8 to 20 mins post-fertilization measured at 2.5 to 5.5 hrs post-fertilization
[58] = system: Paracentrotus lividus; experiment: Antimitotic activity in sea urchin fertilized egg assessed as cleavage alteration treated at 8 to 20 mins post-fertilization measured at 2.5 to 5.5 hrs post-fertilization
[59] = system: SK-MEL-2; experiment: Growth inhibition of human SK-MEL-2 cells after 48 hrs by sulforhodamine B assay; conditions: SK-MEL-2, 48 h
[60] = system: LOX IMVI; experiment: Growth inhibition of human LOXIMVI cells after 48 hrs by sulforhodamine B assay
[61] = system: U-251; experiment: Growth inhibition of human U251 cells after 48 hrs by sulforhodamine B assay; conditions: U-251, 48 h
[62] = Growth inhibition of human EKVX cells after 48 hrs by sulforhodamine B assay

COc1ccc(-c2noc(N)c2-c2cc(OC)c3c(c2)OCO3)cc1
GI50 [1]: 9.66 µM
GI50 [2]: 2.75 µM
GI50 [3]: 2.81 µM
GI50 [4]: 3.4 µM
GI50 [5]: 0.798 µM
GI50 [6]: 2.35 µM
GI50 [7]: 3.11 µM
GI50 [8]: 3.29 µM
GI50 [9]: 5.9 µM
GI50 [10]: 4.1 µM
GI50 [11]: 6.36 µM
GI50 [12]: 2.78 µM
GI50 [13]: 2.36 µM
GI50 [14]: 1.31 µM
GI50 [15]: 6.21 µM
GI50 [16]: 5.46 µM
GI50 [17]: 3.41 µM
GI50 [18]: 3.62 µM
GI50 [19]: 0.563 µM
GI50 [20]: 22.8 µM
GI50 [21]: 5.01 µM
GI50 [22]: 4.86 µM
GI50 [23]: 2.63 µM
GI50 [24]: 6.68 µM
GI50 [25]: 5.1 µM
GI50 [26]: 6.79 µM
GI50 [27]: 3.36 µM
GI50 [28]: 0.237 µM
GI50 [29]: 1.3 µM
GI50 [30]: 9.66 µM
GI50 [31]: 1.81 µM
GI50 [32]: 1.69 µM
GI50 [33]: 20.4 µM
GI50 [34]: 2.8 µM
GI50 [35]: 5 µM
GI50 [36]: 0.726 µM
GI50 [37]: 1.58 µM
GI50 [38]: 1.33 µM
GI50 [39]: 0.62 µM
GI50 [40]: 2.44 µM
GI50 [41]: 1.96 µM
GI50 [42]: 1.85 µM
GI50 [43]: 1.02 µM
GI50 [44]: 2.87 µM
GI50 [45]: 6.66 µM
GI50 [46]: 2.82 µM
GI50 [47]: 13.7 µM
GI50 [48]: 2.85 µM
GI50 [49]: 2.73 µM
GI50 [50]: 2.91 µM
GI50 [51]: 0.454 µM
GI50 [52]: 1.28 µM
GI50 [53]: 0.404 µM
GI50 [54]: 1.29 µM
GI50 [55]: 1.02 µM
EC [56]: >5 µM
EC [57]: 2 µM
EC [58]: 0.2 µM

COc1ccc(-c2c(-c3cc(OC)c4c(c3)OCO4)noc2N)cc1
GI50 [1]: 0.0187 µM
GI50 [2]: 0.0394 µM
GI50 [3]: 0.0324 µM
GI50 [4]: 3.92 µM
GI50 [5]: 0.0315 µM
GI50 [6]: 0.124 µM
GI50 [7]: 0.0472 µM
GI50 [8]: 0.044 µM
GI50 [9]: 0.0822 µM
GI50 [10]: 0.217 µM
GI50 [13]: 0.0223 µM
GI50 [14]: 0.022 µM
GI50 [16]: 0.0735 µM
GI50 [17]: 0.0318 µM
GI50 [18]: 0.0585 µM
GI50 [19]: 0.0191 µM
GI50 [20]: 0.114 µM
GI50 [22]: 0.0997 µM
GI50 [23]: 0.0219 µM
GI50 [25]: 0.0597 µM
GI50 [26]: 0.0136 µM
GI50 [27]: 0.0298 µM
GI50 [28]: < 0.01 µM
GI50 [59]: 0.0259 µM
GI50 [29]: 0.0323 µM
GI50 [60]: 0.0579 µM
GI50 [61]: 0.0308 µM
GI50 [31]: 0.0339 µM
GI50 [32]: 0.0381 µM
GI50 [33]: 0.0658 µM
GI50 [34]: 0.0228 µM
GI50 [35]: 0.148 µM
GI50 [36]: 0.0294 µM
GI50 [37]: 0.0181 µM
GI50 [38]: 0.0346 µM
GI50 [39]: 0.0482 µM
GI50 [40]: 0.0463 µM
GI50 [41]: 0.118 µM
GI50 [42]: 0.0341 µM
GI50 [43]: < 0.01 µM
GI50 [44]: 0.0352 µM
GI50 [46]: 0.0378 µM
GI50 [47]: 0.121 µM
GI50 [48]: 0.0302 µM
GI50 [49]: 0.0596 µM
GI50 [62]: 10.7 µM
GI50 [50]: 0.0499 µM
GI50 [51]: < 0.01 µM
GI50 [52]: 0.0714 µM
GI50 [53]: 0.0193 µM
GI50 [54]: 0.0351 µM
GI50 [55]: 0.0363 µM
EC [56]: 0.05 µM
EC [57]: 0.002 µM
EC [58]: 0.0005 µM
